The results in this text go back to patent US20260201008A1, “SECRETIN-DERIVED GLP1R SELECTIVE AGONISTS” (GUBRA A/S, priority 2023, published 2026).

Numbered stars: 1 amine (or outer) side, 2 acyl side, 3 side chain; on linkers, the order of the positions; unused ones are H or OH. Square brackets hold non-standard residues; d marks the D form. Side chains are listed from the residue outwards. Ends that are not written are not given here. Peptide text beside a SMILES is read from it. * marks the point of attachment. C20 diacid = O=C(O)CCCCCCCCCCCCCCCCCCC(=O)*; γGlu = O=C(O)[C@H](CCC(=O)[*:2])N[*:1]; AEEA = NCCOCCOCC(=O)O; Aib = CC(C)(N)C(=O)O

A short description of series [1]: Turbidity of crude library peptides (absorbance at 600 nm). In kind it is physicochemical. The note with it: Physical stability of peptides. In a few lines:
(§1)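 Fibril formation is scored as average ThT fluorescence from duplicate samples monitored for 72 h at 40° C with shaking stress. Turbidity is the absorbance at 600 nm taken before heating. Peptide concentration was 267 μM at pH 4.0 or pH 7.0.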

Series [2] can be described thus: Fibril formation of crude library peptides (Thioflavin T). Also noted: key: average ThT fluorescence emission at 480 nm (ex 450 nm), raw units. The note with it: Physical stability of peptides. In kind it is physicochemical. In a few lines:
as §1

The next series concerns the target GLP1R (Homo sapiens, UniProt P43220). The series is described as follows: hGLP1R potency, cAMP accumulation in CHO-K1 cells stably overexpressing hGLP1R. The series is classed as cell-based. Also noted: host or cells: CHO-K1. The note with it: for EC50: cAMP accumulation, CHO-K1 cells stably overexpressing hGLP1R, read-out: hGLP1R potency (pEC50) (converted); for SCTR EC50/GLP1R EC50 ratio: selectivity ratio, hSCTR vs hGLP1R, cAMP accumulation in CHO-K1 cells. The method, boiled down:
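TR-FRET cAMP read-out, one hour after reagent addition, following 30 min compound exposure at RT in DPBS/0.05% casein/0.5 mM IBMX. Crude peptides: 5 points, 10-fold steps, n=1. Purified peptides: 11 points, 3-fold steps, n=2. EC50 fitted with a variable-slope sigmoid.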

In a further series the target is SCTR (Homo sapiens, UniProt P47872). The series is described as follows: hSCTR potency, cAMP accumulation in CHO-K1 cells stably overexpressing hSCTR. Further details: alternatively Euroscreen ES-712-AF; FAST-0161L; host or cells: CHO-K1. The note with it: cAMP accumulation, CHO-K1 cells stably overexpressing hSCTR; read-out: hSCTR potency (pEC50) (converted). The series is classed as cell-based. In a few lines: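 CHO-K1/hSCTR cells; DPBS + 0.05% casein + 0.5 mM IBMX; 30 min RT stimulation; cAMP by TR-FRET read at 1 h. Crude peptides: 5-point 10-fold dilutions, n=1. Purified: 11-point 3-fold dilutions, n=2. EC50 via variable-slope fit.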
SCTR, sequence (P47872 23-440): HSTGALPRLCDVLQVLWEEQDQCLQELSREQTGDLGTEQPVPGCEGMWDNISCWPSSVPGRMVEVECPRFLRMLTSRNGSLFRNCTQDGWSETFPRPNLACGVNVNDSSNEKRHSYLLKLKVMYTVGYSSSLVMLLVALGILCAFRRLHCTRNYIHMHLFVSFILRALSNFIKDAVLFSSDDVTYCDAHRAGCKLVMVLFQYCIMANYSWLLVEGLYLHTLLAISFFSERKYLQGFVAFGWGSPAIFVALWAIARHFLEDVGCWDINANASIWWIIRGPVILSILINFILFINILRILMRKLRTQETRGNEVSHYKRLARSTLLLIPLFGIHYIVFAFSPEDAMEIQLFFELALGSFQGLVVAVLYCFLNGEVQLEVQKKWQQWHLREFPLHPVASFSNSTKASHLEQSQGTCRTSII
(Changes in cAMP serve as a functional read-out for many G protein-coupled receptors.)

Series [3] has as its target human GLP-1 receptor (hGLP1R) (human, UniProt P43220 24-463). The series is described as follows: cell-based or functional assay.
The target of series [4] is human secretin receptor (hSCTR) (human, UniProt P47872 23-440). Nature of the series: cell-based or functional assay.
human secretin receptor (hSCTR), sequence (P47872 23-440): as above

GLP1R, sequence (P43220 24-463): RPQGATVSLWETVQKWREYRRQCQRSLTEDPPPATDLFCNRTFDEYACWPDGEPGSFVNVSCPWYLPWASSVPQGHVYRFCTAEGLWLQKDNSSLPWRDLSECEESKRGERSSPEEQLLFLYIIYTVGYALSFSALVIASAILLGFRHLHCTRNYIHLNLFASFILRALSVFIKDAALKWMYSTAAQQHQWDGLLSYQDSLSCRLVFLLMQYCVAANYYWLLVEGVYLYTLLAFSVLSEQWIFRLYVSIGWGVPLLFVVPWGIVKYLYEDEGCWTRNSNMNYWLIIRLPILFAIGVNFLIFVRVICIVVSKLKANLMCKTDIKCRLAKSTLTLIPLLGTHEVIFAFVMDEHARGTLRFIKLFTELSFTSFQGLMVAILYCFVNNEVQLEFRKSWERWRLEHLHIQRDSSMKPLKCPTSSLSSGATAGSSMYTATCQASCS

In the case of `CC(C)C[C@H](NC(=O)[C@H](Cc1ccc(O)cc1)NC(=O)[C@H](CO)NC(=O)[C@H](Cc1ccc(O)cc1)NC(=O)[C@H](CC(=O)O)NC(=O)[C@H](CO)NC(=O)[C@@H](NC(=O)[C@H](Cc1ccccc1)NC(=O)[C@@H](NC(=O)CNC(=O)[C@H](CCC(=O)O)NC(=O)C(C)(C)NC(=O)[C@@H](N)Cc1c[nH]cn1)[C@@H](C)O)[C@@H](C)O)C(=O)N[C@@H](CCCCNC(=O)COCCOCCNC(=O)COCCOCCNC(=O)CC[C@H](NC(=O)CCCCCCCCCCCCCCCCCCC(=O)O)C(=O)O)C(=O)N[C@@H](CCC(=O)O)C(=O)N[C@@H](CCC(=O)O)C(=O)N[C@@H](C)C(=O)NC(C)(C)C(=O)N[C@@H](CC(C)C)C(=O)N[C@@H](CCC(N)=O)C(=O)N[C@@H](CCCNC(=N)N)C(=O)N[C@@H](Cc1ccccc1)C(=O)N[C@@H](CC(C)C)C(=O)N[C@@H](CCC(=O)O)C(=O)N[C@@H](Cc1c[nH]cn1)C(=O)N[C@@H](CC(C)C)C(=O)N[C@H](C(N)=O)C(C)C` [compound 196] (H-H[Aib]EGTFTSDYSYLK([AEEA-AEEA-γGlu-C20 diacid])EEA[Aib]LQRFLEHLV-NH2), the “Turbidity (pH 7)” value in series [1] turned out to be 0.08. The same molecule gave a Fibril formation in series [2] of 5187. Moreover, on GLP1R, the EC50 is 0.0126 nM and the “SCTR EC50/GLP1R EC50 ratio” value was found to be 1743. In addition, the EC50 at SCTR was 20 nM.
Taken in the same sequence, the figures for `CC[C@H](C)[C@H](NC(=O)[C@H](Cc1ccccc1)NC(=O)[C@H](CCCNC(=N)N)NC(=O)[C@H](CCC(N)=O)NC(=O)[C@H](CC(C)C)NC(=O)[C@H](C)NC(=O)[C@H](C)NC(=O)CNC(=O)[C@H](CCC(=O)O)NC(=O)[C@H](CC(C)C)NC(=O)[C@H](CC(C)C)NC(=O)C(C)(C)NC(=O)[C@H](CO)NC(=O)[C@H](Cc1ccc(O)cc1)NC(=O)[C@H](CC(=O)O)NC(=O)[C@H](CO)NC(=O)[C@@H](NC(=O)[C@H](Cc1ccccc1)NC(=O)[C@@H](NC(=O)CNC(=O)[C@H](CCC(=O)O)NC(=O)C(C)(C)NC(=O)[C@@H](N)Cc1c[nH]cn1)[C@@H](C)O)[C@@H](C)O)C(=O)N[C@@H](CCC(N)=O)C(=O)N[C@@H](Cc1c[nH]c2ccccc12)C(=O)N[C@@H](CC(C)C)C(=O)N[C@H](C(N)=O)C(C)C` [compound 197] (H-H[Aib]EGTFTSDYS[Aib]LLEGAALQRFIQWLV-NH2) were 0.21, 7498, 0.0158 nM, 492 and 7.94 nM.
In the case of `CC[C@H](C)[C@H](NC(=O)[C@H](Cc1ccccc1)NC(=O)[C@H](CCCNC(=N)N)NC(=O)[C@H](CCC(N)=O)NC(=O)[C@H](CC(C)C)NC(=O)[C@H](C)NC(=O)[C@H](C)NC(=O)CNC(=O)[C@H](CCC(=O)O)NC(=O)[C@H](CC(C)C)NC(=O)[C@H](CC(C)C)NC(=O)[C@@H](NC(=O)[C@H](CO)NC(=O)[C@H](Cc1ccc(O)cc1)NC(=O)[C@H](CC(=O)O)NC(=O)[C@H](CO)NC(=O)[C@@H](NC(=O)[C@H](Cc1ccccc1)NC(=O)[C@@H](NC(=O)CNC(=O)[C@H](CCC(=O)O)NC(=O)C(C)(C)NC(=O)[C@@H](N)Cc1c[nH]cn1)[C@@H](C)O)[C@@H](C)O)C(C)C)C(=O)N[C@@H](CCC(N)=O)C(=O)N[C@@H](Cc1c[nH]c2ccccc12)C(=O)N[C@@H](CC(C)C)C(=O)N[C@H](C(N)=O)C(C)C` [compound 198] (H-H[Aib]EGTFTSDYSVLLEGAALQRFIQWLV-NH2), the “Turbidity (pH 7)” value in series [1] is 0.33. Moreover, the Fibril formation in series [2] is 257659. On GLP1R, the EC50 is 0.0251 nM and the “SCTR EC50/GLP1R EC50 ratio” value was found to be 185. Further, the EC50 on SCTR is 5.01 nM.
As for `CC[C@H](C)[C@H](NC(=O)[C@H](Cc1ccccc1)NC(=O)[C@H](CCCNC(=N)N)NC(=O)[C@H](CCC(N)=O)NC(=O)[C@H](CC(C)C)NC(=O)[C@H](C)NC(=O)[C@H](C)NC(=O)CNC(=O)[C@H](CCC(=O)O)NC(=O)[C@H](CC(C)C)NC(=O)[C@H](CC(C)C)NC(=O)[C@H](CCC(=O)O)NC(=O)[C@H](CO)NC(=O)[C@H](Cc1ccc(O)cc1)NC(=O)[C@H](CC(=O)O)NC(=O)[C@H](CO)NC(=O)[C@@H](NC(=O)[C@H](Cc1ccccc1)NC(=O)[C@@H](NC(=O)CNC(=O)[C@H](CCC(=O)O)NC(=O)C(C)(C)NC(=O)[C@@H](N)Cc1c[nH]cn1)[C@@H](C)O)[C@@H](C)O)C(=O)N[C@@H](CCC(N)=O)C(=O)N[C@@H](Cc1c[nH]c2ccccc12)C(=O)N[C@@H](CC(C)C)C(=O)N[C@H](C(N)=O)C(C)C` [compound 199] (H-H[Aib]EGTFTSDYSELLEGAALQRFIQWLV-NH2), in series [1], the “Turbidity (pH 7)” value amounted to 0.46. The molecule further displayed a Fibril formation in series [2] of 260000. In addition, at GLP1R, the EC50 was 0.0251 nM and the “SCTR EC50/GLP1R EC50 ratio” value is 223. The EC50 on SCTR was 5.01 nM.
For the molecule `CC[C@H](C)[C@H](NC(=O)[C@H](Cc1ccccc1)NC(=O)[C@H](CCCNC(=N)N)NC(=O)[C@H](CCC(N)=O)NC(=O)[C@H](CC(C)C)NC(=O)[C@H](C)NC(=O)[C@H](C)NC(=O)CNC(=O)[C@H](CCC(=O)O)NC(=O)[C@H](CC(C)C)NC(=O)[C@H](CC(C)C)NC(=O)[C@H](Cc1c[nH]c2ccccc12)NC(=O)[C@H](CO)NC(=O)[C@H](Cc1ccc(O)cc1)NC(=O)[C@H](CC(=O)O)NC(=O)[C@H](CO)NC(=O)[C@@H](NC(=O)[C@H](Cc1ccccc1)NC(=O)[C@@H](NC(=O)CNC(=O)[C@H](CCC(=O)O)NC(=O)C(C)(C)NC(=O)[C@@H](N)Cc1c[nH]cn1)[C@@H](C)O)[C@@H](C)O)C(=O)N[C@@H](CCC(N)=O)C(=O)N[C@@H](Cc1c[nH]c2ccccc12)C(=O)N[C@@H](CC(C)C)C(=O)N[C@H](C(N)=O)C(C)C` [compound 200] (H-H[Aib]EGTFTSDYSWLLEGAALQRFIQWLV-NH2), the “Turbidity (pH 7)” value in series [1] turned out to be 0.92. The molecule also returned a Fibril formation in series [2] of 141730. At GLP1R, the EC50 is 0.02 nM and the “SCTR EC50/GLP1R EC50 ratio” value amounted to 353. On SCTR, the EC50 was 7.94 nM.
`CC[C@H](C)[C@H](NC(=O)[C@H](Cc1ccccc1)NC(=O)[C@H](CCCNC(=N)N)NC(=O)[C@H](CCC(N)=O)NC(=O)[C@H](CC(C)C)NC(=O)[C@H](C)NC(=O)[C@H](C)NC(=O)CNC(=O)[C@H](CCC(=O)O)NC(=O)[C@H](CC(C)C)NC(=O)[C@H](CC(C)C)NC(=O)[C@H](Cc1ccc(O)cc1)NC(=O)[C@H](CO)NC(=O)[C@H](Cc1ccc(O)cc1)NC(=O)[C@H](CC(=O)O)NC(=O)[C@H](CO)NC(=O)[C@@H](NC(=O)[C@H](Cc1ccccc1)NC(=O)[C@@H](NC(=O)CNC(=O)[C@H](CCC(=O)O)NC(=O)C(C)(C)NC(=O)[C@@H](N)Cc1c[nH]cn1)[C@@H](C)O)[C@@H](C)O)C(=O)N[C@@H](CCC(N)=O)C(=O)N[C@@H](Cc1c[nH]c2ccccc12)C(=O)N[C@@H](CC(C)C)C(=O)N[C@H](C(N)=O)C(C)C` [compound 201] (H-H[Aib]EGTFTSDYSYLLEGAALQRFIQWLV-NH2): in series [1], the “Turbidity (pH 7)” value came out at 0.30. The Fibril formation in series [2] is reported as 30208. Moreover, on GLP1R, the EC50 is 0.0126 nM and the “SCTR EC50/GLP1R EC50 ratio” value was 940. For the same molecule, the EC50 at SCTR is 12.6 nM.
As for `CC[C@H](C)[C@H](NC(=O)[C@H](Cc1ccccc1)NC(=O)[C@H](CCCNC(=N)N)NC(=O)[C@H](CCC(N)=O)NC(=O)[C@H](CC(C)C)NC(=O)[C@H](C)NC(=O)[C@H](C)NC(=O)CNC(=O)[C@H](CCC(=O)O)NC(=O)[C@H](CC(C)C)NC(=O)[C@H](CC(C)C)NC(=O)[C@H](Cc1ccccc1)NC(=O)[C@H](CO)NC(=O)[C@H](Cc1ccc(O)cc1)NC(=O)[C@H](CC(=O)O)NC(=O)[C@H](CO)NC(=O)[C@@H](NC(=O)[C@H](Cc1ccccc1)NC(=O)[C@@H](NC(=O)CNC(=O)[C@H](CCC(=O)O)NC(=O)C(C)(C)NC(=O)[C@@H](N)Cc1c[nH]cn1)[C@@H](C)O)[C@@H](C)O)C(=O)N[C@@H](CCC(N)=O)C(=O)N[C@@H](Cc1c[nH]c2ccccc12)C(=O)N[C@@H](CC(C)C)C(=O)N[C@H](C(N)=O)C(C)C` [compound 202] (H-H[Aib]EGTFTSDYSFLLEGAALQRFIQWLV-NH2), the “Turbidity (pH 7)” value in series [1] turned out to be 0.60. The molecule further came in with a Fibril formation in series [2] of 260000. Besides, the EC50 is 0.0398 nM at GLP1R and 39.8 nM on SCTR. In addition, the “SCTR EC50/GLP1R EC50 ratio” value at GLP1R was determined as 820.
H[Aib]EGTFTSDVSRLK([AEEA-AEEA-γGlu-C20 diacid])EEAA[Aib]QRFLEHLV-NH2 (also: K14 lipid also given as C18DA[γE][OEG][OEG]-) [SEQ ID NO: 1]: the “pEC50 hGLPR1” value in series [3] is 10.4 -log M. Besides, in series [4], the “pEC50 hSCTR” value was 6.8 -log M.
For the molecule H[Aib]EGTFTSDVSELK([AEEA-AEEA-γGlu-C20 diacid])E[Aib]AAQQRFLEHLV-NH2 [SEQ ID NO: 5], the “pEC50 hGLPR1” value in series [3] is 10.9 -log M. Moreover, the “pEC50 hSCTR” value in series [4] is 7.1 -log M.
